How the values were obtained:
Format in all cases: in vivo, mouse
NZM mice [1] = assay: Renal histopathology scoring (kidney IC-GN), NZM mice (Example 2)
Procedure: (§1) For histological analyses, the left kidney from each animal is removed and fixed in 10% buffered neutral formalin (EMD) for 48 hours on an orbital rocker at 25° C., then washed overnight with running dH2O and stored in 70% ethanol at 4° C. until ready to be processed. Kidney stains used for histological analyses included hematoxylin and eosin (H&E), Periodic Acid Schiff (PAS) and Trichrome stains (Wistar Institute, Philadelphia, Pa.). All 3 stained sections are used by the pathologist for scoring purposes. All histological scoring is performed blinded and by an independent board certified veterinary medical pathologist (Julie Engiles, VMD, DACVP). Multiple stains are used to determine score values. Images in FIG. 39 show worst affected area of section selected blindly by the pathologist.
(§2) Kidney IC-GN Scoring Method (Smith, Dong et al. 2007):
(§3) 1. Glomerular cellularity—Score 1-5: Null, low, moderate, high, severe
(§4) 2. Glomerular necrosis—Score 1-5: Null, low, moderate, high, severe
(§5) 3. Glomerulosclerosis—Score 1-5: Null, low, moderate, high, severe
(§6) 4. Interstitial infiltration—Score 1-5: Null, low, moderate, high, severe
(§7) 5. Tubular atrophy—Score 1-5: Null, low, moderate, high, severe
(§8) 6. Interstitial fibrosis—Score 1-5: Null, low, moderate, high, severe
(§9) 7. Vasculitis—Score 1-5: Null, low, moderate, high, severe
(§10) Specific Pathologist Definitions: • Necrosis is defined by the presence of nuclear debris/pyknosis within the glomerular tuft indicative of “necrosis.” In many samples, this is a very mild, rare finding within only a very few segments of the glomerular tuft. Also consider effacement of the glomerular tuft by PAS positive, Trichrome negative material necrosis. • Glomerular sclerosis is defined by increased fibroplasia or fibrosis within the glomerular tuft or capsule. […] Most of the vascular changes are mild and could be considered “arteriosclerosis” characterized by proliferation of the smooth muscle cells, and hyalinization of the extracellular matrix. This change may reflect hypertension secondary to glomerular pathology. In very few animals is there overt “vasculitis.” Most inflammatory changes are within the walls of the blood vessels, with little to no damage to the endothelium, and no overt hemorrhage/fibrin leakage. Many also have perivascular rims of fibroblasts.

NZM mice [2] = assay: Urinalysis: total urine protein (proteinuria), NZM mice (Example 2)
MRL/lpr mice [3] = assay: Renal histopathology scoring (kidney IC-GN), MRL/lpr mice
Procedure: as §1, with “neutral 10%” for “neutral”, “17” for “39”
as §2, §3, §4, §5, §6, §7, §8, §9, §10

MRL/lpr mice [4] = assay: Urinalysis: urine leukocytes (leukouria), Uristix, MRL/lpr mice
Procedure: Urine samples are acid precipitated for total protein recovery and analysis. Samples for which enough urine remained are used for Uristix® leukouria analysis. Briefly, a standard protein solution is prepared from normal mouse sera and is used as a standard for mouse urinary protein assay by turbidity. Standard preparation is as follows: 0, 5, 10, 15, 20, 30, 40, and 50 μL of a 4 mg/mL mouse sera standard protein solution as provided in the kit are added in duplicate into two columns. PBS is added to individual wells to adjust the final volume to 50 μL. For urine sample preparation, urine samples are centrifuged at 9880×g for 3 minutes using a tabletop micro-centrifuge. Urine supernatant (1-50 μL) is added in duplicate. PBS is added to adjust the volume to 50 μL total. For the turbidity assay: 25 μL of 0.1 N HCl is added into blank columns and 250 μL of 3% sulfosalicyclic acid into the test columns. The microplate is incubated for 10 minutes at RT and plates are read using an ELISA reader with single beam at 450 nm. For the Uristix® strip assay, strips are laid out and labeled. Twenty microliters of urine are placed onto each test strip square and incubated for at least 30 seconds before the result is recorded. For all total urine analysis plate-based assays, values below the limit of detection set by the lowest point along the standard or set by the manufacturer are considered out of range and are not estimated, but assumed the lowest point along the standard curve for that particular assay.

CC(C)C[C@H](NC(=O)[C@@H](NC(=O)c1cccc(-c2ccccc2)n1)[C@@H](C)O)B(O)O [COMPOUND A, [(1R)-1-[[(2S,3R)-3-hydroxy-2-[6-phenyl-pyridine-2-carbonyl)amino]-1-oxobutyl]amino]-3-methylbutylboronic acid]
vasculitis reduction vs vehicle (NZM mice [1]; COMPOUND A once and twice weekly): 51-55%
Kidney glomerular cellularity, percent change vs vehicle (NZM mice [1]; G1 3 mg/kg ip, 1× wk): −48%
Kidney glomerular necrosis, percent change vs vehicle (NZM mice [1]; G1 3 mg/kg ip, 1× wk): −29%
Kidney glomerulosclerosis, percent change vs vehicle (NZM mice [1]; G1 3 mg/kg ip, 1× wk): −54%
Kidney interstitial fibrosis, percent change vs vehicle (NZM mice [1]; G1 3 mg/kg ip, 1× wk): −56%
Kidney interstitial infiltration, percent change vs vehicle (NZM mice [1]; G1 3 mg/kg ip, 1× wk): −46%
Kidney tubular atrophy, percent change vs vehicle (NZM mice [1]; G1 3 mg/kg ip, 1× wk): −59%
Kidney vasculitis, percent change vs vehicle (NZM mice [1]; G1 3 mg/kg ip, 1× wk): −55%
Kidney glomerular cellularity, percent change vs vehicle (NZM mice [1]; G2 3 mg/kg ip, 2× wk): −50%
Kidney glomerular necrosis, percent change vs vehicle (NZM mice [1]; G2 3 mg/kg ip, 2× wk): −29%
Kidney glomerulosclerosis, percent change vs vehicle (NZM mice [1]; G2 3 mg/kg ip, 2× wk): −53%
Kidney interstitial fibrosis, percent change vs vehicle (NZM mice [1]; G2 3 mg/kg ip, 2× wk): −55%
Kidney interstitial infiltration, percent change vs vehicle (NZM mice [1]; G2 3 mg/kg ip, 2× wk): −43%
Kidney tubular atrophy, percent change vs vehicle (NZM mice [1]; G2 3 mg/kg ip, 2× wk): −55%
Kidney vasculitis, percent change vs vehicle (NZM mice [1]; G2 3 mg/kg ip, 2× wk): −51%
decrease in renal histopathology score over several parameters vs vehicle (NZM mice [1]; mouse, in vivo): 45-55%
Urine proteinuria AUC, percent change vs vehicle (NZM mice [2]; G1 3 mg/kg ip, 1× wk): −61%
Urine proteinuria AUC, percent change vs vehicle (NZM mice [2]; G2 3 mg/kg ip, 2× wk): −72%
proteinuria reduction compared to vehicle (NZM mice [2]; Group 1: 3 mg/kg ip once per week): 61%
proteinuria reduction compared to vehicle (NZM mice [2]; Group 2: 3 mg/kg ip twice weekly): 72%
decrease in average renal pathology score vs vehicle (MRL/lpr mice [3]; COMPOUND A treatment groups): 1.55-1.86 fold
EOS glomerular cellularity, percent change vs vehicle (MRL/lpr mice [3]; G1: 3 mg/kg iv, 1× wk): −41%
EOS glomerular necrosis, percent change vs vehicle (MRL/lpr mice [3]; G1: 3 mg/kg iv, 1× wk): −38%
EOS glomerulosclerosis, percent change vs vehicle (MRL/lpr mice [3]; G1: 3 mg/kg iv, 1× wk): −39%
EOS interstitial infiltration, percent change vs vehicle (MRL/lpr mice [3]; G1: 3 mg/kg iv, 1× wk): −42%
EOS vasculitis, percent change vs vehicle (MRL/lpr mice [3]; G1: 3 mg/kg iv, 1× wk): −33%
Kidney EOS interstitial fibrosis, percent change vs vehicle (MRL/lpr mice [3]; G1: 3 mg/kg iv, 1× wk): −31%
Kidney EOS tubular atrophy, percent change vs vehicle (MRL/lpr mice [3]; G1: 3 mg/kg iv, 1× wk): −35%
EOS glomerular cellularity, percent change vs vehicle (MRL/lpr mice [3]; G2: 3 mg/kg iv, 2× wk): −36%
EOS glomerular necrosis, percent change vs vehicle (MRL/lpr mice [3]; G2: 3 mg/kg iv, 2× wk): −47%
EOS glomerulosclerosis, percent change vs vehicle (MRL/lpr mice [3]; G2: 3 mg/kg iv, 2× wk): −45%
EOS interstitial infiltration, percent change vs vehicle (MRL/lpr mice [3]; G2: 3 mg/kg iv, 2× wk): −61%
EOS vasculitis, percent change vs vehicle (MRL/lpr mice [3]; G2: 3 mg/kg iv, 2× wk): −45%
Kidney EOS interstitial fibrosis, percent change vs vehicle (MRL/lpr mice [3]; G2: 3 mg/kg iv, 2× wk): −42%
Kidney EOS tubular atrophy, percent change vs vehicle (MRL/lpr mice [3]; G2: 3 mg/kg iv, 2× wk): −46%
EOS glomerular cellularity, percent change vs vehicle (MRL/lpr mice [3]; G3: 10 mg/kg po, 2× wk): −33%
EOS glomerular necrosis, percent change vs vehicle (MRL/lpr mice [3]; G3: 10 mg/kg po, 2× wk): −31%
EOS glomerulosclerosis, percent change vs vehicle (MRL/lpr mice [3]; G3: 10 mg/kg po, 2× wk): −33%
EOS interstitial infiltration, percent change vs vehicle (MRL/lpr mice [3]; G3: 10 mg/kg po, 2× wk): −50%
EOS vasculitis, percent change vs vehicle (MRL/lpr mice [3]; G3: 10 mg/kg po, 2× wk): −43%
Kidney EOS interstitial fibrosis, percent change vs vehicle (MRL/lpr mice [3]; G3: 10 mg/kg po, 2× wk): −27%
Kidney EOS tubular atrophy, percent change vs vehicle (MRL/lpr mice [3]; G3: 10 mg/kg po, 2× wk): −42%
renal interstitial infiltration reduction vs vehicle (MRL/lpr mice [3]; all 3 COMPOUND A treatment groups): up to 61%
Urine AUC leukocytes, percent change vs vehicle (MRL/lpr mice [4]; G1: 3 mg/kg iv, 1× wk): −96%
Urine AUC leukocytes, percent change vs vehicle (MRL/lpr mice [4]; G2: 3 mg/kg iv, 2× wk): −94%
Urine AUC leukocytes, percent change vs vehicle (MRL/lpr mice [4]; G3: 10 mg/kg po, 2× wk): −94%
